Experimental data: patent US20120225862A1, “HETEROARYL BENZAMIDES, COMPOSITIONS AND METHODS OF USE” (AUCKLAND UNIVSERVICES LIMITED, priority 2009, published 2012)

Columns and labels:
ACHN shVHL = assay: Clonogenic survival, ACHN with shRNA to VHL; assay type: cell-based, human; settings: FIG. 2E
AMPK = assay: In vitro kinase activity (Millipore KinaseProfiler): AMPK; assay type: biochemical; settings: no head or unit printed
Procedure: (§1) All cells were grown in DMEM+10% FCS. ACHN and ACHN shVHL were a kind gift from George V. Thomas (UCLA). HIF overexpressing clones were described previously. Transfection of RNA oligos were performed with DnarmaFECT Reagent 1 (Dharmcon), according to manufacturer's directions. ON-TARGETplus SMART pools against HIF-1β/ARNT were purchased from Dharmacon. Glut1 was detected with anti-GLUT1 antibody from NeoMarkers/LabVision/Fisher. Pyruvate/lactate levels and hexokinase activity were both measured by fluorometric assay (BioVision and Sigma-Aldrich, respectively). ATP levels were measured by bioluminescence assay (ATP Determination Kit from Molecular Probes/Invitrogen). In vitro kinase activities were performed by Millipore KinaseProfiler. Affi-Gel 10 (BioRad) activated affinity media was coupled to analogs to generate immobilized affinity linkers.
(§2) We next wanted to investigate the differential glucose uptake between RCCs with and without VHL treated with compound 47 that subsequently lead to the selective death of VHL-deficient cells. We first examined the message levels of the two main glucose transporters, GLUT1 and GLUT2 by quantitative real-time PCR. GLUT1 is an inducible, high-affinity glucose transporter, while GLUT2 is the glucose transporter responsible for basal glucose uptake. […] Cells deficient in VHL had very low levels of GLUT2 that could barely be detected (FIG. 3J). […]

PKA = target: T1, PKA (Homo sapiens, UniProt P17612); assay: In vitro kinase activity (Millipore KinaseProfiler): PKA; assay type: biochemical; settings: no head or unit printed
T1 construct: purchased Millipore (KinaseProfiler service)
Procedure: as §1, §2

p53 = assay: DNA damage response (Western blot p53, phospho-p53); assay type: cell-based, human; settings: RCC4 and RCC4/VHL, 1.25, 2.5 and 5 μM
Procedure: (A) Clonogenic survival of RCC4 and RCC4/VHL treated with […] (5 μM)(*p<0.05). All error bars represent the standard error of the mean. […] RCC4 and RCC4/VHL cells were treated with increasing concentrations of compound 47 (1.25, 2.5 and 5 μM), a negative control (DMSO) and a positive control (4-(pyridin-4-yl)-N-(m-tolyl)thiazol-2-amine). Cells were lysed and probed for LC3, a marker of autophagy, or α-tubulin (loading control). […] RCC4 and RCC4/VHL cells were treated with vehicle, increasing concentrations of compound 47, and camptothecin. Cells were stained with DAPI and nuclear condensation was examined by fluorescence microscopy. (D) RCC4 cells were treated with compound 47 (5 μM) for the indicated time and stained with Annexin V and propidium iodide and subjected to FACS analysis. […] RCC4 and RCC4/VHL cells were subjected to increasing concentrations of compound 47 (1.25, 2.5, and 5 μM), a negative control (DMSO), and a positive control (doxorubicin). Cells were lysed and subjected to Western blot with the indicated antibodies.
However, RCC cells without VHL undergo a necrotic cell death in response to compound 47 as measured by the ability of the cells to exclude trypan blue, an indicator of cell membrane integrity.

NEK2 = target: T2, NEK2 (Homo sapiens, UniProt P51955); assay: In vitro kinase activity (Millipore KinaseProfiler): NEK2; assay type: biochemical; settings: no head or unit printed
T2 construct: purchased Millipore (KinaseProfiler service)
Procedure: as §1, §2

Syk = target: T3, Syk (Homo sapiens, UniProt P43405); assay: In vitro kinase activity (Millipore KinaseProfiler): Syk; assay type: biochemical; settings: no head or unit printed
T3 construct: purchased Millipore (KinaseProfiler service)
Procedure: as §1, §2

MKK4 = target: T4, MKK4 (Mus musculus, UniProt P47809); assay: In vitro kinase activity (Millipore KinaseProfiler): MKK4; assay type: biochemical; settings: no head or unit printed
T4 construct: purchased Millipore (KinaseProfiler service)
Procedure: as §1, §2

PKCδ = target: T5, PKCδ (Homo sapiens, UniProt Q05655); assay: In vitro kinase activity (Millipore KinaseProfiler): PKCδ; assay type: biochemical; settings: no head or unit printed
T5 construct: purchased Millipore (KinaseProfiler service)
Procedure: as §1, §2

CaMKI = target: T6, CaMKI (Homo sapiens, UniProt Q14012); assay: In vitro kinase activity (Millipore KinaseProfiler): CaMKI; assay type: biochemical; settings: no head or unit printed
T6 construct: purchased Millipore (KinaseProfiler service)
Procedure: as §1, §2

CSK = target: T7, CSK (Homo sapiens, UniProt P41240); assay: In vitro kinase activity (Millipore KinaseProfiler): CSK; assay type: biochemical; settings: no head or unit printed
T7 construct: purchased Millipore (KinaseProfiler service)
Procedure: as §1, §2

PAK2 = target: T8, PAK2 (Homo sapiens, UniProt Q13177); assay: In vitro kinase activity (Millipore KinaseProfiler): PAK2; assay type: biochemical; settings: no head or unit printed
T8 construct: purchased Millipore (KinaseProfiler service)
Procedure: as §1, §2

RCC4/VHL = assay: 3H-2-deoxyglucose uptake, RCC4/VHL; assay type: cell-based, human; settings: 5 μM
Procedure: One hundred thousand cells were plated into 6-well plates. The following day, the cells were treated with vehicle or drug and incubated for the indicated time. Cells were washed twice in phosphate buffered saline and low glucose media was added for 30 minutes. Cells were then incubated with 0.5 microCi of tritiated-2-deoxyglucose and incubated for an hour at 37° C. Cells were washed twice in PBS and then lysed in 0.2 N NaOH and 0.2% SDS. Lysates were transferred to scintillation tubes with scintillation fluid and quantified by scintillation counter.
One hundred thousand cells were plated per well in a six-well plate. The next day, cells were treated with the indicated concentration of drug and incubated for the indicated time. Cells were then washed twice with phosphate-buffered saline, incubated in low-glucose medium for 30 minutes, and ^3H-2-deoxyglucose (0.5 μCi) was added in 1 ml of glucose-free media for an additional hour. Cells were washed twice in PBS and lysed (0.2 N NaOH and 0.2% sodium dodecyl sulfate). Glucose uptake was quantified with a scintillation counter.

PI3K = assay: In vitro kinase activity (Millipore KinaseProfiler): PI3K; assay type: biochemical; settings: no head or unit printed
Procedure: as §1, §2

T2 sequence (P51955 whole entry, species assumed): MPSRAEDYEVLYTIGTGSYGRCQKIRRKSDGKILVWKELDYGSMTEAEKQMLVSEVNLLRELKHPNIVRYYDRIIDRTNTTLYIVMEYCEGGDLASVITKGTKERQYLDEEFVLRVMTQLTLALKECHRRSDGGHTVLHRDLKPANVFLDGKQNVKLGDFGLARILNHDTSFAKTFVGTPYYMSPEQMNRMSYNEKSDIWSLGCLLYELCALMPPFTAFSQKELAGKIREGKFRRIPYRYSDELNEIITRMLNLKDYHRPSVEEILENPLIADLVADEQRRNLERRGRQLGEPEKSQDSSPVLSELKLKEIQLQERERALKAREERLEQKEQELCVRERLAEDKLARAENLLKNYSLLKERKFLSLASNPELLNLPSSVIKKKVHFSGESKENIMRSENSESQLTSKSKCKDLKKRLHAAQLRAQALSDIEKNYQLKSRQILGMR
T4 sequence (P47809 2-397 limits assumed): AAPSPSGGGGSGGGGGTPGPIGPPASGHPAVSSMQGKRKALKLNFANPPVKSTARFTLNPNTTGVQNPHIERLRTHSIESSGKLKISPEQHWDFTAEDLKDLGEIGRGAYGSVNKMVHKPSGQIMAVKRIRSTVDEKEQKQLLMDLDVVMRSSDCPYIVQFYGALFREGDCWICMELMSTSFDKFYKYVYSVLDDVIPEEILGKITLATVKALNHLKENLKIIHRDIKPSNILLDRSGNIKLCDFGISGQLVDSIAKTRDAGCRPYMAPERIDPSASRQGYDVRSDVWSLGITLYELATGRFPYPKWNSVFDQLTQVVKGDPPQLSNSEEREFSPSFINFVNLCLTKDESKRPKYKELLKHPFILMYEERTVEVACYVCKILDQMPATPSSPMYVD
T7 sequence (P41240 whole entry, species assumed): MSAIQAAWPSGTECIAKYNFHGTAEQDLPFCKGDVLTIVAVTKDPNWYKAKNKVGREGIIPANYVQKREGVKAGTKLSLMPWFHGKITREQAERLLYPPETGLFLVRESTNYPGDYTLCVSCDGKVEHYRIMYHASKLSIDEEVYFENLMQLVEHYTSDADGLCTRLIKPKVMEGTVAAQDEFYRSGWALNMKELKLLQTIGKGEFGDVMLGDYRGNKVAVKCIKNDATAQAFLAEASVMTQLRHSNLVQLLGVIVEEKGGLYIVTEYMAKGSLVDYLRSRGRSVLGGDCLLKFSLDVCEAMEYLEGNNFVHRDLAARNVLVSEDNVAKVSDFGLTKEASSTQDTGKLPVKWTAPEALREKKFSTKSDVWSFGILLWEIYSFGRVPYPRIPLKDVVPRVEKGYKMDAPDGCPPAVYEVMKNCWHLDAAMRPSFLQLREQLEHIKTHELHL
T6 sequence (Q14012 whole entry): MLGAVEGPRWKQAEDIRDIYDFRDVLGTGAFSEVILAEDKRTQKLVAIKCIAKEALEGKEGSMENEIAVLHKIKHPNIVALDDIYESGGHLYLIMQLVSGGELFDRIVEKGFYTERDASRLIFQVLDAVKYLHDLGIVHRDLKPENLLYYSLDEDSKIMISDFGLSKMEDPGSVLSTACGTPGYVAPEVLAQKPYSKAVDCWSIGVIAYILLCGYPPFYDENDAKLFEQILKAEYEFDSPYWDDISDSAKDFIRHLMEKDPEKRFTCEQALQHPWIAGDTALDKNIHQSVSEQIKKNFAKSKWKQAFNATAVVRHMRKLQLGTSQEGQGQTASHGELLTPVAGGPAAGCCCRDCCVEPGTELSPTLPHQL
T5 sequence (Q05655 whole entry): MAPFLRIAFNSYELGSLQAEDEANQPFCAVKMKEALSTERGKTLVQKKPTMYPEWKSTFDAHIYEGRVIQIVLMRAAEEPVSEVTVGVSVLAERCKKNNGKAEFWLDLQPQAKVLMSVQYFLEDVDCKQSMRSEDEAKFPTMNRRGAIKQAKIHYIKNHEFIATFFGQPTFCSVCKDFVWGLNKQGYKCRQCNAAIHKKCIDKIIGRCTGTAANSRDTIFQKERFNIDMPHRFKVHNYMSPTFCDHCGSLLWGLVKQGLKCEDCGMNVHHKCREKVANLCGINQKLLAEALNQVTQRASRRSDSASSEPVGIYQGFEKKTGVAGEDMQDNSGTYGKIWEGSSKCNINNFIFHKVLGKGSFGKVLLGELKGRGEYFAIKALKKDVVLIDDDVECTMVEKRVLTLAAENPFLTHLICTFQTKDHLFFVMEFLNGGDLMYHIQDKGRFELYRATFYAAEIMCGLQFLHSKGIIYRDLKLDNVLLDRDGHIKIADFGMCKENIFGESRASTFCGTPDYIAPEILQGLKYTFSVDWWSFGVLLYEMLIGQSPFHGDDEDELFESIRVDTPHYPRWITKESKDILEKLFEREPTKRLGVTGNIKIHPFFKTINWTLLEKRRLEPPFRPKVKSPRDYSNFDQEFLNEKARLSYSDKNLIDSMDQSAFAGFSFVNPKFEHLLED
T8 sequence (Q13177 whole entry, species assumed): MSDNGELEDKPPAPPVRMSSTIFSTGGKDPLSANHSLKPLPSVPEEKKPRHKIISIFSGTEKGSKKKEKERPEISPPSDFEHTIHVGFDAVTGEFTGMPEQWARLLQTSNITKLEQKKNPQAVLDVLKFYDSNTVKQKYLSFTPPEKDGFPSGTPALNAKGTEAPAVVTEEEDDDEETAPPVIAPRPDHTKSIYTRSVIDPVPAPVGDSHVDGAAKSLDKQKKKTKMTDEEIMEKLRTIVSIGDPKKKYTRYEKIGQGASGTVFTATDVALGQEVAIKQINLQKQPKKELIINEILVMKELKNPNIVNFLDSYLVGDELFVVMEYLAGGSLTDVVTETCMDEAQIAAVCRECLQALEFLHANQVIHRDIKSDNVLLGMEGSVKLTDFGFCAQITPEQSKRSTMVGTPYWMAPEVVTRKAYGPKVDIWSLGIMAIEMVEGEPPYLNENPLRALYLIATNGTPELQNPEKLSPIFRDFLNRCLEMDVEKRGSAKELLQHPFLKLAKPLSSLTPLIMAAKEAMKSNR

CC(C)(C)c1ccc(S(=O)(=O)NCc2ccc(C(=O)Nc3cccnc3)cc2)cc1 [Example 38, 4-((4-tert-Butylphenylsulfonamido)methyl)-N-(pyridin-3-yl)benzamide]
sensitivity of ACHN cells with VHL silenced by shRNA (clonogenic survival) (ACHN shVHL): sensitive
AMPK kinase activity (AMPK): 92%
PKA kinase activity (PKA): 96
total p53 or phospho-p53 levels (DNA damage response) (p53): did not increase
NEK2 kinase activity (NEK2): 103
Syk kinase activity (Syk): 94
MKK4 kinase activity (MKK4): 128
PKCδ kinase activity (PKCδ): 116
CaMKI kinase activity (CaMKI): 87
CSK kinase activity (CSK): 99
PAK2 kinase activity (PAK2): 97%
glucose uptake in RCC4/VHL cells (RCC4/VHL): unaffected
PI3K kinase activity (PI3K): 97
